Where “and” joins values, the source holds several entries; their conditions need not be identical. Identical values can stand only once.
Assays:
10DM24 deoxyribozyme [1] = assay: 10DM24-catalyzed ligation of small-molecule NTP substrate to branch-site adenosine of RNA substrate L with cofactor RΔ; type: biochemical; conditions: for krel = kobs,NTP*/kobs,NTP: relative to GTP
Method: (§1) General Description of Kinetic Assays. All kinetic assays with the 10DM24 deoxyribozyme and its variants were performed according to established methods (Flynn-Charlebois, et al. (2003) supra; Wang and Silverman (2003) supra). The 5′-^32P-labeled RNA substrate (L for “left-hand substrate”) that provides the branch-site adenosine was the limiting reagent relative to 10DM24 (E) and the truncated cofactor RNA (RΔ; R originally derived from “right-hand substrate”). The ratio L:E:RΔ was 1:10:30, with 0.25 μM 10DM24. The cofactor RΔ was 5′-phosphorylated unless otherwise stated. The RNA substrate L, deoxyribozyme 10DM24 and cofactor RΔ were annealed in 5 mM HEPES, pH 7.5, 15 mM NaCl, 0.1 mM EDTA by heating at 95° C. for 3 minutes and cooling on ice for 5 minutes. The ligation reactions were performed with the appropriate concentration of NTP substrate (0.05-50 mM) at a final buffer concentration of 100 mM CHES, pH 9.0, 150 mM NaCl, 2 mM KCl, and 40-400 mM MgCl2 at 37° C. for up to 5 hours. The combination of 1 mM NTP and 40 mM MgCl2 was defined as “standard incubation conditions”; 10 mM NTP and 150 mM MgCl2 was defined as “enhanced incubation conditions”. At appropriate timepoints, aliquots were removed from the sample, quenched into stop solution (80% formamide, 1× TB [89 mM each Tris and boric acid, pH 8.3], and 50 mM EDTA containing 0.025% bromophenol blue and xylene cyanol) and stored at −20° C. prior to analysis. Samples were separated by 20% denaturing PAGE at 30 W for 115 minutes and imaged with a PHOSPHORIMAGER. The resulting data were fit to the equation yield=Y·(1−e^−kt), where k=kobs and Y=final yield.
Use of Free NTPs as Substrates. It was determined whether 10DM24 could catalyze ligation with free GTP as a substrate (see FIG. 1B), thereby transferring guanosine 5′-monophosphate (GMP) to the branch-site adenosine 2′-hydroxyl group. When RΔ, an oligoribonucleotide cofactor that corresponds to all of the remaining nucleotides of R, was added to 10DM24 along with GTP, ligation was efficient (FIG. 8; 94% yield in 5 hours and kobs 0.034 min^−1 under the standard incubation conditions of 1 mM GTP and 40 mM MgCl2 at pH 9.0, 37° C.). The RNA product with the single added guanosine at the branch-site adenosine was PAGE-purified and the identity confirmed by partial alkaline hydrolysis (50 mM NaHCO3 at 95° C. for 5 minutes) and MALDI mass spectrometry (m/z calcd. 5433, found 5437±5).

[2] = test system: 10DM24-C44T mutant deoxyribozyme; assay: Ligation of NTP substrate with 10DM24 variant in which the terminal P4 nucleotide is changed C→T, cofactor RΔ; type: biochemical; conditions: for krel = kobs,NTP*/kobs,NTP: relative to ATP
Method: as §1
Focus was then placed on the purine NTPs (GTP, ATP) and their derivatives. When 1 mM ATP was provided as a small molecule substrate in place of GTP using the original 10DM24 sequence and RΔ, no reaction was observed (<1% in 5 hours). […] Furthermore, the kobs increased sixteen-fold to 0.013 min^−1 under enhanced conditions with 10 mM ATP (82% yield in 3 hours).

10DM24 deoxyribozyme [3] = assay: Multiple-turnover ligation of GTP; type: biochemical
Excerpt: In contrast, upon 10DM24-catalyzed reaction of the oligoribonucleotide 2′-hydroxyl group with the NTP substrate, the binding affinity of the RNA for the deoxyribozyme was not expected to increase substantially. Thus, the capability of the engineered 10DM24 deoxyribozyme to catalyze the multiple-turnover ligation of GTP was examined. The 10DM24 deoxyribozyme was the limiting reagent, with the RNA substrate that provides the branch-site adenosine (L) in 10-fold excess over the deoxyribozyme (L:E:RΔ=10:1:3). The reaction was performed under the standard incubation conditions described herein using 1 mM GTP and 40 mM MgCl2 at 37° C. After 5 hours, the product yield was 50%, corresponding to 5 turnovers. Accordingly, with GTP as substrate, multiple-turnover behavior was shown using an RNA ligase deoxyribozyme.

10DM24 deoxyribozyme [4] = assay: Ligation of GTP or pppGpG in presence of shorter cofactor RΔΔ; type: biochemical
Method: It was subsequently shown that a binding site for an NTP cofactor can be located adjacent to the substrate binding site. This was achieved by removing an additional nucleotide from the RΔ cofactor, forming the shorter RΔΔ cofactor which required two added nucleotides to reconstitute the complete P4 region (FIG. 10). The 10DM24-catalyzed ligation reaction of GTP in the presence of the two-nucleotide short cofactor RΔΔ was performed with the 5′-^32P-labeled RNA substrate (L) that provides the branch-site adenosine as the limiting reagent. For kinetic assays, the ratio of L:E:RΔΔ was 1:10:30 with 0.25 μM deoxyribozyme (E). For isolation of the reaction products, the ratio L:E:RΔΔ was 1:2:3 with 1.5 μM deoxyribozyme. The reaction was performed under the enhanced incubation conditions with 20 mM GTP and 150 mM MgCl2 in 100 mM CHES, pH 9.0, 150 mM NaCl, and 2 mM KCl at 37° C. for up to 7 hours. […] Both products were isolated and shown by partial alkaline hydrolysis to be branched with the connectivities A-G and A-GG (where A is the branch-site adenosine).
It was contemplated that the new A-GG product was formed by initial templated but otherwise uncatalyzed synthesis of a GG dinucleotide (i.e., pppGpG) from two GTP molecules, followed by 10DM24-catalyzed branch formation using this dinucleotide. […] The reaction was performed under the enhanced incubation conditions of 20 mM GTP and 150 mM MgCl2. […] The pppGpG dinucleotide was synthesized independently using T7 RNA polymerase (Huang, et al. (1998) supra) and led solely to the A-GG product. Although the pppGpG substrate had Kd,app of >1 mM with RΔΔ, similar to Kd,app for GTP with RΔ, the ligation reaction with pppGpG and RΔΔ had kobs six-fold higher than for the analogous reaction with GTP and RΔ (Table 8).
(§2) Similar experiments were performed using the mutant 10DM24 deoxyribozyme that has CTTT rather than CCTT in the P4 region (FIG. 11). For the DNA-catalyzed ligation of pppGpG, the 5′-^32P-labeled RNA with the branch-site adenosine (L) was incubated with the 10DM24 deoxyribozyme (E) and the cofactor RΔΔ in the ratio of L:E:RΔΔ=1:10:30 in the presence of 1 mM pppGpG and 40 mM MgCl2 in 100 mM CHES pH 9.0, 150 mM NaCl, and 2 mM KCl at 37° C. The analysis of the ligation reaction was performed as described herein. […] This is consistent with the model that pppGpG and the first two nucleotides of RΔΔ together reconstitute the P4 helix. When the ligation reaction with pppGpG was tested in the presence of RΔ instead of RΔΔ, the ligation product A-GG was formed, but with a 10-fold decrease in kobs (squares in FIG. 11). Because RΔ provides an extraneous G nucleotide when combined with pppGpG (see legend of FIG. 11), some disruption in activity is perhaps anticipated. […] This is consistent with the observation that GTP was also not a substrate for the 10DM24-C44T mutant deoxyribozyme.
The ligation reaction of pppGpG was also performed using a variety of pppGpG concentrations with the parent 10DM24 deoxyribozyme in the presence of RΔΔ and 40 mM MgCl2. In FIG. 12, the kobs values are plotted versus [pppGpG] and fit to kobs=kmax·[pppGpG]/(Kd,app+[pppGpG]). The Kd,app for pppGpG was >1 mM.

[5] = test system: mutant 10DM24 deoxyribozyme that has CTTT rather than CCTT in the P4 region; assay: Ligation of pppGpG, second deoxyribozyme nucleotide in P4 mutated C→T; type: biochemical; conditions: 1 mM pppGpG, RΔΔ, 40 mM MgCl2
Method: as §2

[6] = test system: 10DM24-C44T mutant deoxyribozyme; assay: Ligation of pppGpG, first DNA nucleotide in P4 (nucleotide 44) changed C→T; type: biochemical; conditions: 1 mM pppGpG, RΔΔ, 40 mM MgCl2
Method: as §2

glmS riboswitch = conditions: read-out: Kd,app; cited from earlier work
10DM24 variant = assay: Ligation of ATP as substrate and cofactor with RΔΔ, P4 nucleotides 43 and 44 changed CC→TT; type: biochemical; conditions: 20 mM ATP, 150 mM MgCl2, RΔΔ
[7] = enhanced incubation conditions, 3 h

Nc1nc2c(ncn2[C@@H]2O[C@H](COP(=O)(O)OP(=O)(O)OP(=O)(O)O)[C@@H](O)[C@H]2O)c(=O)[nH]1 [GTP, guanosine 5′-triphosphate]
kobs,enh/kobs,std (10DM24 deoxyribozyme [1]; GTP series): 8 | ligation yield %, 3 h (10DM24 deoxyribozyme [1]; [7]): 94% | kobs (10DM24 deoxyribozyme [1]; enhanced incubation conditions: 10 mM NTP, 150 mM MgCl2, 100 mM CHES pH 9.0, 37° C.): 0.26 min⁻¹ and 0.262 min⁻¹ | krel = kobs,NTP*/kobs,NTP (10DM24 deoxyribozyme [1]; enhanced incubation conditions): (1) | Kd (10DM24 deoxyribozyme [1]; from plot of kobs versus [GTP], RΔ, read-out: Kd,app): > 1000 µM | ligation yield %, 5 h (10DM24 deoxyribozyme [1]; standard incubation conditions): 94% | kobs (10DM24 deoxyribozyme [1]; standard incubation conditions: 1 mM NTP, 40 mM MgCl2, 100 mM CHES pH 9.0, 150 mM NaCl, 2 mM KCl, 37° C., RΔ): 0.034 min⁻¹ | krel = kobs,NTP*/kobs,NTP (10DM24 deoxyribozyme [1]; standard incubation conditions): (1) | ligation yield %, 5 h ([2]; standard incubation conditions): < 1% | product yield (10DM24 deoxyribozyme [3]; L:E:RΔ=10:1:3, 1 mM GTP, 40 mM MgCl2, 37° C., 5 hours): 50% | turnovers (10DM24 deoxyribozyme [3]; after 5 hours, L in 10-fold excess over deoxyribozyme): 5 | kobs (10DM24 deoxyribozyme [4]; 20 mM GTP + RΔΔ, 150 mM Mg2+): 0.0008 min⁻¹ | reaction products formed (10DM24 deoxyribozyme [4]; RΔΔ cofactor, 20 mM NTP and 150 mM MgCl2, pH 9.0, 37° C.): two reaction products

Nc1nc2c(ncn2[C@@H]2O[C@H](COP(=O)(O)O[C@H]3[C@@H](O)[C@H](n4cnc5c(=O)[nH]c(N)nc54)O[C@@H]3COP(=O)(O)OP(=O)(O)OP(=O)(O)O)[C@@H](O)[C@H]2O)c(=O)[nH]1 [pppGpG]
kobs (10DM24 deoxyribozyme [4]; 1 mM pppGpG + RΔΔ, 40 mM Mg2+): 0.19 min⁻¹ | product formation (10DM24 deoxyribozyme [4]; 1 mM pppGpG, 40 mM MgCl2, in the absence of RΔΔ): no product formation was observed | decrease in kobs (10DM24 deoxyribozyme [4]; in the presence of RΔ instead of RΔΔ): 10 fold | Kd (10DM24 deoxyribozyme [4]; with RΔΔ, 40 mM Mg2+, pH 9.0, 37° C., read-out: Kd,app): > 1000 µM | decrease in kobs [5]: 130 fold | product formation [6]: No product formation was observed

N[C@H]1C(O)O[C@H](COP(=O)(O)O)[C@@H](O)[C@@H]1O (some centres unmarked) [glucosamine 6-phosphate]
Kd (glmS riboswitch): 200 µM

Nc1ncnc2c1ncn2[C@@H]1O[C@H](COP(=O)(O)OP(=O)(O)OP(=O)(O)O)[C@@H](O)[C@H]1O [ATP]
ligation yield %, 5 h (10DM24 deoxyribozyme [1]; standard incubation conditions): < 1% | kobs,enh/kobs,std ([2]; ATP series): 16 | ligation yield %, 3 h [2, 7]: 82% | kobs ([2]; enhanced incubation conditions: 10 mM NTP, 150 mM MgCl2, pH 9.0, 37° C.): 0.013 min⁻¹ | krel = kobs,NTP*/kobs,NTP ([2]; enhanced incubation conditions): (1) | ligation yield %, 5 h ([2]; standard incubation conditions): 33% | kobs ([2]; standard incubation conditions: 1 mM NTP, 40 mM MgCl2, pH 9.0, 37° C., RΔ, ATP series): 0.0008 min⁻¹ | krel = kobs,NTP*/kobs,NTP ([2]; standard incubation conditions): (1) | ligation product formed (10DM24 variant): a small amount of the ATP ligation product

From patent US20080207885A1, “Method for site-specific labeling of RNA using a deoxyribozyme” (priority 2007, published 2008)
